Assay results taken from patent publication US4575560A, “Insecticidal diaminoguanidine hydrazone compounds” (American Cyanamid Company, priority 1985, dated 1986).

Columns and labels:
Southern Armyworm = assay: Southern armyworm test, third-instar larvae on treated Sieva lima bean leaves; format: in vivo, Spodoptera eridania (Cramer); details: third-instar larvae
Experimental: Test formulations and procedures used for evaluation are as follows:
A. 100 mg of the test material is weighed, placed in a funnel over a 113 g narrow-mouth bottle, rinsed into the bottle with a 35 mL scoop of acetone, followed by a 35 mL scoop of water and another 35 mL scoop of acetone to yield 1000 ppm in 65% acetone. If the material is not soluble, it is broken up with a glass rod and used as a suspension.
B. This stock solution ("A") is used to make 300 ppm solutions or suspensions by pipetting 30 mL of "A" into a bottle containing 70 mL of 50% acetone to yield 300 ppm. Further dilutions in 50% acetone are made as required.
C. Tests requiring 10 ppm acetone solutions: 1 mL of "A" is pipetted into 99 mL of acetone to yield 10 ppm. Additional dilutions are made using 50% acetone as required.
Southern Armyworm--Spodoptera eridania (Cramer)
A Sieva lima bean plant with just the primary leaves expanded to 1.91 cm is dipped for three seconds with agitation in the "A" solution of 1000 ppm and set in the hood to dry. Following this, one leaf is placed in a 9 cm petri dish which has a moist filter paper in the bottom and 10 third-instar armyworm larvae about 1 cm long. This dish is covered and held at 80° F., and 50% r.h. After two days, mortality counts and estimates of the amount of feeding are made. Compounds showing partial kill and/or inhibition of feeding are held for an extra day for further observations.
All compounds showing activity as defined above are retested, using the second leaf on the bean plant, after an interval of seven days from original treatment, as an assay of residual activity.

[1] = test system: Tobacco Budworm 3rd Instar; assay: Tobacco budworm secondary test, third-instar larvae on treated cotton cotyledons; format: in vivo, Heliothis virescens (Fabricus)
Experimental: Tobacco Budworm--Heliothis virescens (Fabricus)
Three cotton plants with just expanded cotyledons are dipped in 1000 ppm solution and placed in the hood to dry. When dry, each cotyledon is cut in half, and 10 are each placed in a 28 g plastic medicine cup containing a 1.25 cm dental wick saturated with water, and one third-instar budworm larva is added. The cup is capped and held for three days at 80° F., 50% relative humidity, after which mortality counts are made.

CC(C)OC(=O)N(N=Cc1ccc(OC(F)(F)C(Cl)Cl)cc1)C(=N)NN=Cc1ccc(OC(F)(F)C(Cl)Cl)cc1 [HCCL2 CF2 O / HCCl2 CF2 O / -i-C3 H7]
Mortality Rating Southern Armyworm (Southern Armyworm; 100 ppm): 0 (No effect) | Mortality Rating Southern Armyworm (Southern Armyworm; 1000 ppm): 7 (76-85%) | Mortality Rating Tobacco Budworm 3rd Instar ([1]; 100 ppm): 0 (No effect) | reduced feeding (R) Tobacco Budworm 3rd Instar ([1]; 100 ppm): R | Mortality Rating Tobacco Budworm 3rd Instar ([1]; 1000 ppm): 0 (No effect) | reduced feeding (R) Tobacco Budworm 3rd Instar ([1]; 1000 ppm): R

CC1(C)Oc2ccc(C=NNC(=N)NN=Cc3ccc4c(c3)OC(C)(C)O4)cc2O1 [drawing 45 / S]
Mortality Rating Southern Armyworm (Southern Armyworm; 10 ppm): 6 (66-75%) | Mortality Rating Southern Armyworm (Southern Armyworm; 1000 ppm): 9 (100%) | Mortality Rating Tobacco Budworm 3rd Instar ([1]; 100 ppm): 0 (No effect) | Mortality Rating Tobacco Budworm 3rd Instar ([1]; 1000 ppm): 0 (No effect) | reduced feeding (R) Tobacco Budworm 3rd Instar ([1]; 1000 ppm): R

N=C(NN=Cc1ccc(OC(F)(F)C(F)F)cc1)N(N=Cc1ccc(OC(F)(F)C(F)F)cc1)C(=O)N1CCCC1 [HCF2 CF2 O / HCF2 CF2 O / (CH2)4]
Mortality Rating Southern Armyworm (Southern Armyworm; 100 ppm): 9 (100%) | Mortality Rating Southern Armyworm (Southern Armyworm; 1000 ppm): 9 (100%) | Mortality Rating Tobacco Budworm 3rd Instar ([1]; 100 ppm): 0 (No effect) | Mortality Rating Tobacco Budworm 3rd Instar ([1]; 1000 ppm): 3 (36-45%)

C=CCOC(=O)N(N=Cc1ccc(OC(F)(F)F)cc1)C(=N)NN=Cc1ccc(OC(F)(F)F)cc1 [CF3 O / CF3 O / CH2CHCH2]
Mortality Rating Southern Armyworm (Southern Armyworm; 10 ppm): 6 (66-75%) | Mortality Rating Southern Armyworm (Southern Armyworm; 100 ppm): 8 (86-99%) | Mortality Rating Southern Armyworm (Southern Armyworm; 1000 ppm): 9 (100%) | Mortality Rating Tobacco Budworm 3rd Instar ([1]; 1000 ppm): 0 (No effect) | reduced feeding (R) Tobacco Budworm 3rd Instar ([1]; 1000 ppm): R

CN(C)C(=O)N(N=Cc1ccc(F)cc1)C(=N)NN=Cc1ccc(F)cc1 [F / F / CH3 / CH3]
Mortality Rating Southern Armyworm (Southern Armyworm; 100 ppm): 0 (No effect) | Mortality Rating Southern Armyworm (Southern Armyworm; 1000 ppm): 8 (86-99%) | Mortality Rating Tobacco Budworm 3rd Instar ([1]; 1000 ppm): 0 (No effect)

CC(C)(OC(=O)N(N=Cc1ccc(C(F)(F)F)cc1)C(=N)NN=Cc1ccc(C(F)(F)F)cc1)C(Cl)(Cl)Cl [CF3 / CF3 / Cl3 CC(CH3)2]
Mortality Rating Southern Armyworm (Southern Armyworm; 10 ppm): 0 (No effect) | Mortality Rating Southern Armyworm (Southern Armyworm; 100 ppm): 9 (100%) | Mortality Rating Southern Armyworm (Southern Armyworm; 1000 ppm): 9 (100%) | Mortality Rating Tobacco Budworm 3rd Instar ([1]; 10 ppm): 0 (No effect) | Mortality Rating Tobacco Budworm 3rd Instar ([1]; 100 ppm): 0 (No effect) | reduced feeding (R) Tobacco Budworm 3rd Instar ([1]; 100 ppm): R | Mortality Rating Tobacco Budworm 3rd Instar ([1]; 1000 ppm): 9 (100%)

N=C(NN=Cc1ccc(Br)cc1)NN=Cc1ccc(OC(F)(F)C(F)F)cc1 [Br / HCF2 CF2 O / B]
Mortality Rating Southern Armyworm (Southern Armyworm; 100 ppm): 9 (100%) | Mortality Rating Southern Armyworm (Southern Armyworm; 1000 ppm): 9 (100%) | Mortality Rating Tobacco Budworm 3rd Instar ([1]; 1000 ppm): 0 (No effect) | reduced feeding (R) Tobacco Budworm 3rd Instar ([1]; 1000 ppm): R

N=C(NN=Cc1ccc(Br)cc1)NN=Cc1ccc(C(F)(F)F)cc1 [CF3 / Br / B]
Mortality Rating Southern Armyworm (Southern Armyworm; 10 ppm): 9 (100%) | Mortality Rating Southern Armyworm (Southern Armyworm; 100 ppm): 9 (100%) | Mortality Rating Southern Armyworm (Southern Armyworm; 1000 ppm): 9 (100%) | Mortality Rating Tobacco Budworm 3rd Instar ([1]; 1000 ppm): 0 (No effect) | reduced feeding (R) Tobacco Budworm 3rd Instar ([1]; 1000 ppm): R

CC(C)OC(=O)N(N=Cc1ccc(SC(F)(F)C(F)F)cc1)C(=N)NN=Cc1ccc(SC(F)(F)C(F)F)cc1 [HCF2 CF2 S / HCF2 CF2 S / -i-C3 H7]
Mortality Rating Southern Armyworm (Southern Armyworm; 100 ppm): 9 (100%) | Mortality Rating Southern Armyworm (Southern Armyworm; 1000 ppm): 9 (100%) | Mortality Rating Tobacco Budworm 3rd Instar ([1]; 100 ppm): 0 (No effect) | Mortality Rating Tobacco Budworm 3rd Instar ([1]; 1000 ppm): 5 (56-65%) | reduced feeding (R) Tobacco Budworm 3rd Instar ([1]; 1000 ppm): R

CCC(C)OC(=O)N(N=Cc1ccc(C(F)(F)F)cc1)C(=N)NN=Cc1ccc(C(F)(F)F)cc1 (centres unmarked) [CF3 / CF3 / drawing 54]
Mortality Rating Southern Armyworm (Southern Armyworm; 10 ppm): 6 (66-75%) | Mortality Rating Southern Armyworm (Southern Armyworm; 100 ppm): 9 (100%) | Mortality Rating Southern Armyworm (Southern Armyworm; 1000 ppm): 9 (100%) | Mortality Rating Tobacco Budworm 3rd Instar ([1]; 100 ppm): 0 (No effect) | reduced feeding (R) Tobacco Budworm 3rd Instar ([1]; 100 ppm): R | Mortality Rating Tobacco Budworm 3rd Instar ([1]; 1000 ppm): 6 (66-75%) | reduced feeding (R) Tobacco Budworm 3rd Instar ([1]; 1000 ppm): R

N=C(NN=Cc1ccc(SC(F)F)cc1)NN=Cc1ccc(SC(F)F)cc1 [HCF2 S / S]
Mortality Rating Southern Armyworm (Southern Armyworm; 100 ppm): 9 (100%) | Mortality Rating Southern Armyworm (Southern Armyworm; 1000 ppm): 9 (100%) | Mortality Rating Tobacco Budworm 3rd Instar ([1]; 1000 ppm): 0 (No effect) | reduced feeding (R) Tobacco Budworm 3rd Instar ([1]; 1000 ppm): R

N=C(NN=Cc1ccc2c(c1)OC(F)(F)O2)NN=Cc1ccc2c(c1)OC(F)(F)O2 [drawing 46 / S]
Mortality Rating Southern Armyworm (Southern Armyworm; 10 ppm): 4 (46-55%) | Mortality Rating Southern Armyworm (Southern Armyworm; 100 ppm): 0 (No effect) | Mortality Rating Southern Armyworm (Southern Armyworm; 1000 ppm): 9 (100%) | Mortality Rating Tobacco Budworm 3rd Instar ([1]; 100 ppm): 0 (No effect) | reduced feeding (R) Tobacco Budworm 3rd Instar ([1]; 100 ppm): R | Mortality Rating Tobacco Budworm 3rd Instar ([1]; 1000 ppm): 0 (No effect) | reduced feeding (R) Tobacco Budworm 3rd Instar ([1]; 1000 ppm): R
